Measurements reported in ChEMBL document CHEMBL3046101, “Synthesis and Biological Activity of 1,2-Dithiolanes and 1,2-Dithianes Bearing a Nitrogen-containing Substituent” (1992).

Experiments:
Assay type in all cases: functional
[1] = test system: Culex pipiens molestus; experiment: Insecticidal activity against Culex pipiens molestus assessed as mortality at 5 ppm
[2] = test system: Chilo suppressalis; experiment: Insecticidal activity against Chilo suppressalis (rice stem borer) assessed as mortality at 50 ug/g administered as topical application
[3] = test system: Chilo suppressalis; experiment: Insecticidal activity against Chilo suppressalis (rice stem borer) assessed as mortality compound administered as topical application
[4] = test system: Nilaparvata lugens; experiment: Insecticidal activity against Nilaparvata lugens (brown planthopper) assessed as mortality at 50 ppm
[5] = test system: Tetranychus urticae; experiment: Acaricidal activity against Tetranychus urticae (two-spotted spider mite) assessed as mortality at 500 ppm
[6] = test system: Spodoptera litura; experiment: Insecticidal activity against Spodoptera litura assessed as mortality at 500 ppm
[7] = test system: Tetranychus urticae; experiment: Acaricidal activity against Tetranychus urticae (two-spotted spider mite) assessed as mortality

| Structure (SMILES) | mortality at 5 ppm [1] [%] | mortality [2] [%] | LD50 [3] [mg/kg] | mortality at 50 ppm [4] [%] | mortality at 500 ppm [5] [%] | mortality at 500 ppm [6] [%] | LC50 [7] [µg/mL] |
| --- | --- | --- | --- | --- | --- | --- | --- |
| CN(C)CC1CCSS1.O=C(O)C(=O)O (stereo not drawn) | 100 | 100 | 4.3 | 80 | 100 | 30 | – |
| CN(C)CC1CSSC1.O=C(O)C(=O)O | 100 | 100 | – | 100 | 100 | 90 | 88 |
| CN(C)CC1CCCSS1.O=C(O)C(=O)O (stereo not drawn) | 0 | 0 | – | 50 | 20 | 0 | – |
| CN(C)C[C@H]1C[C@@H](CN(C)C)SS1.O=C(O)C(=O)O | 0 | 0 | – | 5 | 100 | 30 | 20 |
| CN(C)CC1CCC(CN(C)C)SS1.O=C(O)C(=O)O (stereo not drawn) | 0 | 0 | – | 0 | 100 | 0 | – |
| O=C(O)C(=O)O.O=[N+]([O-])c1cccc2c1SSC2 | 95 | 10 | – | 80 | 100 | 30 | – |
| CC(C)C1CSSC1 | 0 | 20 | – | 0 | 50 | 20 | – |
| CN(C)CCC1CCSS1.O=C(O)C(=O)O (stereo not drawn) | 100 | 100 | 23.2 | 20 | 100 | 0 | 126 |
| CN(C)CCC1CSSC1.O=C(O)C(=O)O | 95 | 100 | 28.1 | 100 | 100 | 40 | – |
| CN(C)CCCC1CSSC1.O=C(O)C(=O)O | 40 | 60 | – | 10 | 100 | 0 | – |
| CN(C)CCCCC1CSSC1.O=C(O)C(=O)O | 75 | 0 | – | 20 | 100 | 0 | – |
| CC1CC(CN(C)C)SS1.O=C(O)C(=O)O (stereo not drawn) | 0 | 80 | – | 95 | 100 | 20 | – |
| CC1CSSC1CN(C)C.O=C(O)C(=O)O (stereo not drawn) | 0 | 80 | 50 | 75 | 100 | 0 | 209 |
| CN(C)CC1(C)CSSC1.O=C(O)C(=O)O | 100 | 70 | – | 100 | 90 | 40 | – |
| O=C(O)C(=O)O.c1ccc(C2CSSC2)nc1 | 100 | 10 | – | 70 | 100 | 0 | – |
| CN1CCCCC1C1CSSC1.O=C(O)C(=O)O (stereo not drawn) | 95 | 70 | – | 100 | 100 | 10 | – |
| CN(C)NC1CSSC1.O=C(O)C(=O)O | 25 | 100 | 36.2 | 45 | 100 | 0 | – |
| CN(C)N(C)C1CSSC1.O=C(O)C(=O)O | 100 | 100 | 15 | 60 | 100 | 0 | – |
| CN(C)C[C@H]1C[C@H](CN(C)C)SS1.O=C(O)C(=O)O (relative stereo) | 0 | 0 | – | 20 | 90 | 0 | 116 |
| CN(C)C1CSSC1.O=C(O)C(=O)O [NEREISTOXIN HYDROGEN OXALATE] | 100 | 100 | 1.7 | 100 | 50 | 30 | 603 |
